The values that follow come from patent US8426448B2, “1,5-diphenyl-pyrrolidin-2-one compounds as CB-1 ligands” (Eli Lilly and Company, priority 2008, dated 2013).

Each structure is given as a SMILES string. Where a name gives a salt, the structure may show the parent alone.

What is called EC50 is the concentration at which the effect is half-maximal. A word on the Kb: it is the equilibrium dissociation constant of an antagonist, usually derived from a functional assay.

For one data set, the target named is T1, CYP2C9 (Homo sapiens, UniProt P11712).
T1 construct: pooled, mixed gender, human liver microsomes; from tissue; host or cells: pooled, mixed gender human liver microsomes
As to the kind of experiment: Human CYP fingerprinting, sulfaphenazole inhibition. It is filed as in vitro ADME. Conditions: 4 μM, human liver microsomes, 30 min, 5 μM sulfaphenazole. Here is the method: (§1) CYP fingerprinting is well established technique and is used as an indication of potential risk of drug-drug interactions in the pharmaceutical sciences. Compounds of the present invention may be assayed by well known methods, essentially as follows: Compounds are incubated at 37° C. at a final concentration of 4 μM with pooled, mixed gender, human liver microsomes and 1 mM NADPH (Nicotine Adenine Dinucleotide Phosphate) (final conc.) for 0 and 30 min. without any CYP inhibitor and with each CYP inhibitor in separate incubations for 30 min. Each inhibitor is specific for an individual cytochrome P450. The specific inhibitors used for CYPs 2C9, 2D6 and 3A were sulfaphenazole, quinidine and ketoconazole, respectively. Ketoconazole (CYP3A) is made up at 25 mM in DMSO and then diluted in buffer to a final concentration of 10 μM. Quinidine (CYP2D6) is made up at 5 mM in 50/50 acetonitrile/water and then diluted in buffer to a final concentration of 10 μM. Sulfaphenazole (CYP2C9) is made up at 100 mM in DMSO and then diluted in buffer to a final concentration of 5 μM. Samples are analyzed by LC-MS in positive or negative electrospray mode using a Waters Acquity Ultra Performance LC coupled to a MicroMass Q-T of-2 mass spectrometer.
(§2) Data are analyzed using MetaboLynx™ version 4.1. […]
In general terms: Microsomes from liver hold many membrane-bound enzymes, among them those of drug oxidation.

In data set [1] the target is T2, hCB-1 (Homo sapiens, UniProt P21554). Nature of the data set: hCB1-CHO agonist mode SPA GTP-γ-35S binding assay. It is filed as biochemical. The arrangement: purchased Applied Cell Sciences, Rockville, Md; host or cells: CHO cell membranes. The note with it: inverse agonism, read-out: hCB-1 SPA GTPγS CHO Membrane Agonist Relative EC50 inverse. The protocol: Compounds of the present invention may be tested for functional activity at the CB-1 and CB-2 receptors in both agonist and antagonist modes using SPA (Scintillation Proximity Assay) based GTP-γ-^35S binding assays. All assay components are prepared in assay buffer (20 mM HEPES, 100 mM NaCl, 5 mM MgCl2, pH 7.4) at room temperature. Semi-log dilutions of test compound are prepared in assay buffer containing BSA (0.125% final conc.) for the agonist mode assays. For the antagonist mode assays, test compounds are prepared in the same manner but also include an 80% efficacious dose of a full agonist (methanandamide). GTP-γ^35S binding for the antagonist assay may be measured in a 96 well format using a modification of an antibody capture technique previously described. (DeLapp, N W, et al. (1999) J Pharmacol Exp Ther 289:946-955.) The CB-2 receptor agonist activity may be measured using a similar method using hCB2-Sf9 membranes. The CB-1 receptor agonist activity may be measured using a whole membrane capture technique using hCB1-CHO membranes. All incubations are done at room temperature.
hCB1-CHO membrane, GDP (1 μM final conc.), and saponin (10 μg/mL final conc., Sigma, St Louis, Mo.) are combined and prepared on ice as for the antagonist assays, above. Diluted test compounds, GTP-γ-^35S ([…] final conc.) and membranes are combined in the assay plate and incubated for 30 min. Then 1 mg/well Wheatgerm Agglutinin SPA beads (GE Healthcare, Piscataway, N.J.) are added, plates are sealed and vortexed and incubate for 1 hr. before spinning and counting in the same fashion as for the antagonist assays, above.
Data are analyzed as follows: Background is subtracted from all wells. Percent agonist efficacy is determine by normalizing agonist/inverse agonist dose response data to the response obtained for a full agonist (methanandamide). Percent antagonist inhibition is calculated by first normalizing the data to the signal generated by a saturating concentration of the full agonist (methanandamide). Then the data are analyzed using a 4-parameter logistic reduced fit (Activity Base™ and XLFit3™ from IDBS, Emeryville, Calif.). Kb values are determined using a modification of the Cheng-Prusoff relationship: Kb=IC50/(1+[agonist]/EC50), where “IC50” is determined from a four parameter fit of displacement curves, “[agonist]” is the agonist challenge concentration (nM), and “EC50” is determined from a four parameter fit of a full agonist concentration response curve (Cheng and Prusoff 1973). Mean Kb values are calculated as a mean of at least three independent determinations±standard error of the mean (SEM). […]
In general terms: Binding of GTPγS marks nucleotide exchange on a G protein.

Another data set relates to CYP3A. As to the kind of experiment: Human CYP fingerprinting, ketoconazole inhibition. Format: in vitro ADME. The note with it: 4 μM, human liver microsomes, 30 min, 10 μM ketoconazole. The protocol:
as §1, §2

Data set [2] deals with T2, hCB-1. As to the kind of experiment: hCB1-Sf9 antagonist mode SPA GTP-γ-35S binding assay. Format: biochemical. The arrangement: purchased Applied Cell Sciences, Rockville, Md. The note with it: Sf9 membrane 22.7 μg; antagonist mode vs methanandamide; read-out: hCB-1 SPA GTPγS Sf9 Membrane 22.7 μg Antagonist Kb. The protocol:
(§3) Compounds of the present invention may be tested for functional activity at the CB-1 and CB-2 receptors in both agonist and antagonist modes using SPA (Scintillation Proximity Assay) based GTP-γ-^35S binding assays. All assay components are prepared in assay buffer (20 mM HEPES, 100 mM NaCl, 5 mM MgCl2, pH 7.4) at room temperature. Semi-log dilutions of test compound are prepared in assay buffer containing BSA (0.125% final conc.) for the agonist mode assays. For the antagonist mode assays, test compounds are prepared in the same manner but also include an 80% efficacious dose of a full agonist (methanandamide). GTP-γ^35S binding for the antagonist assay may be measured in a 96 well format using a modification of an antibody capture technique previously described. (DeLapp, N W, et al. (1999) J Pharmacol Exp Ther 289:946-955.) The CB-2 receptor agonist activity may be measured using a similar method using hCB2-Sf9 membranes. The CB-1 receptor agonist activity may be measured using a whole membrane capture technique using hCB1-CHO membranes. All incubations are done at room temperature. […]
(§4) Data are analyzed as follows: Background is subtracted from all wells. […] Percent antagonist inhibition is calculated by first normalizing the data to the signal generated by a saturating concentration of the full agonist (methanandamide). Then the data are analyzed using a 4-parameter logistic reduced fit (Activity Base™ and XLFit3™ from IDBS, Emeryville, Calif.). Kb values are determined using a modification of the Cheng-Prusoff relationship: Kb=IC50/(1+[agonist]/EC50), where “IC50” is determined from a four parameter fit of displacement curves, “[agonist]” is the agonist challenge concentration (nM), and “EC50” is determined from a four parameter fit of a full agonist concentration response curve (Cheng and Prusoff 1973). Mean Kb values are calculated as a mean of at least three independent determinations±standard error of the mean (SEM). […]

The target in a further data set is T3, hCB-2 (Homo sapiens, UniProt P34972).
T3 construct: purchased Perkin Elmer, Boston, Mass; host or cells: Sf9 cell membranes
As to the kind of experiment: hCB2-Sf9 antagonist mode SPA GTP-γ-35S binding assay. Format: biochemical. The note with it: antagonist mode vs methanandamide; read-out: hCB-2 SPA GTPγS Sf9 Membrane Antagonist Kb. Here is the method: as §3, §4

T2 sequence (P21554 whole entry): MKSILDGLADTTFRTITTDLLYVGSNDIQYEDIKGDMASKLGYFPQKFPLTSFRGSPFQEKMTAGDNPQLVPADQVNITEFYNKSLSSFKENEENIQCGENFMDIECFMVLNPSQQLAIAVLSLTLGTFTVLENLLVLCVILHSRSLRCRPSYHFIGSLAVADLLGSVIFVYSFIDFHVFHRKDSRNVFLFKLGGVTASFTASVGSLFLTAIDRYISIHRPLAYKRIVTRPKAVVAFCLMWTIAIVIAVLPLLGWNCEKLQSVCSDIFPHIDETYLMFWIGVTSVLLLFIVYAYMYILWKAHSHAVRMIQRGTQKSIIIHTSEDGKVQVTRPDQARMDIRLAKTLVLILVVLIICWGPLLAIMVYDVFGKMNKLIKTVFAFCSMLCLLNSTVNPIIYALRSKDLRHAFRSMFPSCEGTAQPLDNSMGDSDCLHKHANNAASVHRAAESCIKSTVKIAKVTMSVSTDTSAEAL
T3 sequence (P34972 whole entry): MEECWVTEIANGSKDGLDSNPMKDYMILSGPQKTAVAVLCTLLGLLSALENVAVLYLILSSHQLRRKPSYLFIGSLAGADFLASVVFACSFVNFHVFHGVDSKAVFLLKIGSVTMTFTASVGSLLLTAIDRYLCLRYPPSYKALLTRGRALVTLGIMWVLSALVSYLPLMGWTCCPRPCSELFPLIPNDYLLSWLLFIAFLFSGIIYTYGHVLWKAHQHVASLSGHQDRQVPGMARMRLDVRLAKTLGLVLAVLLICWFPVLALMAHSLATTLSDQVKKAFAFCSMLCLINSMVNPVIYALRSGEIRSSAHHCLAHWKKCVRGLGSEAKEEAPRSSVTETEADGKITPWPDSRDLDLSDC
T1 sequence (P11712 whole entry): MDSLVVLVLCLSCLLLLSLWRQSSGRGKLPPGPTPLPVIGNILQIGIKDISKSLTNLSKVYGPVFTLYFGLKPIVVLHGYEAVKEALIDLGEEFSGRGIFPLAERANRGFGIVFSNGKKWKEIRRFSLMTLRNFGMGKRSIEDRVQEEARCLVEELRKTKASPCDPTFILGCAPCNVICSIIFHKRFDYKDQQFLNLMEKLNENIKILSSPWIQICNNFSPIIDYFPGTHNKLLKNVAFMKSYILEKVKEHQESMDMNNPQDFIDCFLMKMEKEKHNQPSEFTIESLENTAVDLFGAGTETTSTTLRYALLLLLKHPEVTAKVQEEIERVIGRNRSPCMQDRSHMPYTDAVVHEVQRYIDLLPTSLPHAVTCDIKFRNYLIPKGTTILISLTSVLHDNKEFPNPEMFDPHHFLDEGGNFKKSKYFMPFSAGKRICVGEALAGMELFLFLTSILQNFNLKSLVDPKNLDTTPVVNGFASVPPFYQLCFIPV

Consider `CC(C)(N[C@@H]1C[C@H](c2cccc(C(F)(F)F)c2)N(c2ccc(OC(F)(F)F)cc2)C1=O)c1cccc(C(F)(F)F)n1` [28 HCl salt, (3R,5R)-3-[1-methyl-1-(6-trifluoromethyl-pyridin-2-yl)-ethylamino]-1-(4-trifluoromethoxy-phenyl)-5-(3-trifluoromethyl-phenyl)-pyrrolidin-2-one], for which the “Risk of Drug Drug Interaction (DDI) CYP2C9” value at CYP2C9 is reported as “low (a reduction in metabolite peak area of less than 30% (relative to the uninhibited control incubation) receives a designation of low risk of Drug Drug Interaction (DDI))”. In addition, on hCB-1 [1], the EC50 stood at 1.27 nM. Further, the “Risk of Drug Drug Interaction (DDI) CYP3A” value with CYP3A is reported as “Low”. In addition, the Kb at hCB-1 [2] was 0.59 nM; on hCB-2, more than 9090 nM.
